The text below walks through data of patent publication US8999998B2, “Pyrazolopyrimidine JAK inhibitor compounds and methods” (Genentech, Inc., priority 2009, dated 2015).

What all share (assay type): biochemical
In assay [1] the target is TYK2 kinase domain (Homo sapiens (Human), UniProt P29597). Description: TYK2 inhibition assay (Caliper LabChip, isolated kinase domain). The conditions noted are these: 25 uM ATP, 1 nM TYK2; read-out: TYK2 enzymatic activity (Ki). From the text:
(§1) The catalytically active kinase domain of human JAK1, JAK2, JAK3 or TYK2 was purified from extracts of SF9 insect cells infected with a recombinant baculovirus expression vector encoding the human JAK1, JAK2, JAK3 or TYK2 kinase domains (JAK1 amino acid residues N852-D1154 according to the numbering of GenBank sequence accession number P23458, JAK2 amino acid residues D812-G1132 according to the numbering of GenBank sequence accession number NP_004963.1; JAK3 amino acid residues S783-S1124 according to the numbering of GenBank sequence accession number P52333, and TYK2 amino acid residues N873-C1187 according to the numbering of GenBank sequence accession number P29597). The activity of the JAK1, JAK2, JAK3 or TYK2 kinase domains can be measured by a number of direct and indirect methods, including quantification of phosphorylation of peptide substrates derived from the human JAK3 protein (Saltzman et al., Biochem. Biophys. Res. Commun. 246:627-633 (2004)). The activity of the JAK1, JAK2, JAK3 or TYK2 kinase domains was measured in vitro by monitoring phosphorylation of JAK3 derived peptides using the Caliper LabChip technology (see Examples).
(§2) The activity of the isolated JAK1, JAK2 or TYK2 kinase domain was measured by monitoring phosphorylation of a peptide derived from JAK3 ([…] fluorescently labeled on the N-terminus with 5-carboxyfluorescein using the Caliper LabChip technology (Caliper Life Sciences, Hopkinton, Mass.). […] Reactions were incubated at 22° C. in 384-well polypropylene microtiter plates for 30 minutes and then stopped by addition of 25 uL of an EDTA containing solution (100 mM Hepes pH 7.2, 0.015% Brij-35, 150 mM EDTA), resulting in a final EDTA concentration of 50 mM. After termination of the kinase reaction, the proportion of phosphorylated product was determined as a fraction of total peptide substrate using the Caliper LabChip 3000 according to the manufacturer's specifications. Ki values were then determined using the Morrison tight binding model. Morrison, J. F., Biochim. Biophys. Acta. 185:269-296 (1969); William, J. W. and Morrison, J. F., Meth. Enzymol., 63:437-467 (1979).

For assay [2], the target named is JAK3 kinase domain (Homo sapiens (Human), UniProt P52333). Nature of the assay: JAK3 inhibition assay (Caliper LabChip, isolated kinase domain). The conditions noted are these: 5 uM ATP, 5 nM JAK3; read-out: JAK3 enzymatic activity (Ki).
JAK3 kinase domain, sequence (P52333 783-1124): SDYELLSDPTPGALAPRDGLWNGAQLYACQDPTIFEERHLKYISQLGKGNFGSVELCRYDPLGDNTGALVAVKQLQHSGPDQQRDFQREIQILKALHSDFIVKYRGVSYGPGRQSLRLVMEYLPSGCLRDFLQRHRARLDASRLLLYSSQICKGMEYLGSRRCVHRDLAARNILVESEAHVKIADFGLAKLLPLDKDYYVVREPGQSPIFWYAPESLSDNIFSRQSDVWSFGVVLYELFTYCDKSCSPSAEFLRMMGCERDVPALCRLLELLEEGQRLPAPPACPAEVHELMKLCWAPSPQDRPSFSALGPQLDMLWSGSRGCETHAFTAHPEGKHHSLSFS
Text: as §1, with “Previous studies have shown that the isolated kinase domains of human JAK1, JAK2, JAK3 or TYK2 phosphorylate peptide substrates in in vitro kinase assays (Saltzman et al., Biochem. Biophys. Res. Commun. 246:627-633 (2004)). The catalytically” for “The catalytically”
as §2, with “JAK3” for “JAK1, JAK2 or TYK2”

Assay [3] has as its target JAK1 kinase domain (Homo sapiens (Human), UniProt P23458). Nature of the assay: JAK1 inhibition assay (Caliper LabChip, isolated kinase domain). The conditions noted are these: 25 uM ATP, 1.5 nM JAK1; read-out: JAK1 enzymatic activity (Ki).
Text: as §1, §2

Assay [4] has as its target JAK2 kinase domain (Homo sapiens (Human), UniProt O60674). Description: JAK2 inhibition assay (Caliper LabChip, isolated kinase domain). As to conditions: 25 uM ATP, 0.2 nM JAK2; read-out: JAK2 enzymatic activity (Ki).
Text: as §1, §2

JAK2 kinase domain, sequence (O60674 812-1132): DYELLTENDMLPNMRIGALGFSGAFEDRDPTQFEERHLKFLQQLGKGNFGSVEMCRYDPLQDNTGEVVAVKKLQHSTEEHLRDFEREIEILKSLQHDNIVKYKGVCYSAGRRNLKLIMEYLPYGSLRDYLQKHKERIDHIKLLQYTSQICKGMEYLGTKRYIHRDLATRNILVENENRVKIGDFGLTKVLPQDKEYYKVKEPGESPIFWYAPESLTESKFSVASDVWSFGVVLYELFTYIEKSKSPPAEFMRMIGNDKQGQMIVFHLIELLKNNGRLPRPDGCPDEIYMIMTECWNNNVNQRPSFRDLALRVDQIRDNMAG
JAK1 kinase domain, sequence (P23458 852-1154): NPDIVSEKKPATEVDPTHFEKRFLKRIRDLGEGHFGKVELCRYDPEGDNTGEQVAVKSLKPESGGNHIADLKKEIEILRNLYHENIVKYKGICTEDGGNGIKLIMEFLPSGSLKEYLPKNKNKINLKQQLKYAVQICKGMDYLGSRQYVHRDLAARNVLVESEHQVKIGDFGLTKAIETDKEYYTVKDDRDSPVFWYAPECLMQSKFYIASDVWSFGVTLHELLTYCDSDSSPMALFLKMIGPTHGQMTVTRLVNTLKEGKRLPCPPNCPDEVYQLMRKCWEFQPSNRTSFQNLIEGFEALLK
TYK2 kinase domain, sequence (P29597 873-1187): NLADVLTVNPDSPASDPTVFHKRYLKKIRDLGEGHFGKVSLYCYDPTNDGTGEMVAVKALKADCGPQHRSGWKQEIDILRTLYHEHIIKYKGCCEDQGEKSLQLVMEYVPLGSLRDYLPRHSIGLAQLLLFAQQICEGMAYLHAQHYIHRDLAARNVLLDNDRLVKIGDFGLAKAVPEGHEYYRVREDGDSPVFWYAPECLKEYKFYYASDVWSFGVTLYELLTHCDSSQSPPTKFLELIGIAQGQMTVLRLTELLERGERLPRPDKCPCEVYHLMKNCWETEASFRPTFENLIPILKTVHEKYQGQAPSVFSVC

Regarding `COc1ccc(Cl)cc1-c1nn(CC(=O)N2CC=CCC2)cc1NC(=O)c1cnn2cccnc12` [Example 300, N-(3-(5-chloro-2-methoxyphenyl)-1-(2-(5,6-dihydropyridin-1(2H)-yl)-2-oxoethyl)-1H-pyrazol-4-yl)pyrazolo[1,5-a]pyrimidine-3-carboxamide], the Ki stood at 10 nM in assay [1], 170 nM in assay [2], 0.5 nM in assay [3] and 2.5 nM in assay [4].
Consider `COc1ccc(C#N)cc1-c1nn(CC2(O)CCCC2)cc1NC(=O)c1cnn2cccnc12` [Example 359, N-(3-(5-cyano-2-methoxyphenyl)-1-((1-hydroxycyclopentyl)methyl)-1H-pyrazol-4-yl)pyrazolo[1,5-a]pyrimidine-3-carboxamide], for which the inhibition constant Ki in assay [1] was found to be 46 nM; in assay [2], 690 nM; in assay [3], 1 nM; in assay [4], 4.2 nM.
In the same order, the values of `COc1ccc(F)cc1-c1nn(CC2(O)CCOCC2)cc1NC(=O)c1cnn2cccnc12` [Example 364, N-(3-(5-fluoro-2-methoxyphenyl)-1-((4-hydroxytetrahydro-2H-pyran-4-yl)methyl)-1H-pyrazol-4-yl)pyrazolo[1,5-a]pyrimidine-3-carboxamide] are 47 nM, 710 nM, 2.3 nM and 6.2 nM.
For `CC1CCCCN1c1nn(CC(C)(C)O)cc1NC(=O)c1cnn2cccnc12` (stereo not shown) [Example 379, N-(1-(2-hydroxy-2-methylpropyl)-3-(2-methylpiperidin-1-yl)-1H-pyrazol-4-yl)pyrazolo[1,5-a]pyrimidine-3-carboxamide] the same measures were 410 nM, 240 nM, 85.9 nM and 26.3 nM.
In the same order, the values of `N#CC1CCN(c2n[nH]cc2NC(=O)c2cnn3cccnc23)CC1` [Example 395, N-(3-(4-cyanopiperidin-1-yl)-1H-pyrazol-4-yl)pyrazolo[1,5-a]pyrimidine-3-carboxamide] are 230 nM, 390 nM, 176 nM and 31.3 nM.
In the case of `COc1ccc(Cl)cc1-c1nn(CC(O)(C(F)(F)F)C(F)(F)F)cc1NC(=O)c1cnn2cccnc12` [Example 432, N-(3-(5-chloro-2-methoxyphenyl)-1-(3,3,3-trifluoro-2-hydroxy-2-(trifluoromethyl)propyl)-1H-pyrazol-4-yl)pyrazolo[1,5-a]pyrimidine-3-carboxamide], the inhibition constant (Ki) worked out at 31 nM in assay [1], 570 nM in assay [2], 1.5 nM in assay [3] and 5.7 nM in assay [4].
In the same order, the values of `COc1ncc(Cl)cc1-c1nn(CC(=O)N(C)C)cc1NC(=O)c1cnn2cccnc12` [Example 499, N-(3-(5-chloro-2-methoxypyridin-3-yl)-1-(2-(dimethylamino)-2-oxoethyl)-1H-pyrazol-4-yl)pyrazolo[1,5-a]pyrimidine-3-carboxamide] are 14 nM, 780 nM, 1.6 nM and 5.8 nM.

A word on the Ki: it is a dissociation constant, usually derived from enzyme kinetics or from competition with a known ligand.
